This is an account of results in ChEMBL document CHEMBL5532698, “2,3-Dihydroquinazolin-4(1H)-ones and quinazolin-4(3H)-ones as broad-spectrum cytotoxic agents and their impact on tubulin polymerisation” (RSC Med Chem, 2024).

Activity calls are given as the source filed them. The calls are words filed in the database; no cut-off is given here.

For orientation: GI50 means the concentration giving 50% growth inhibition. For orientation: inhibition means the change of the read-out against control, counted positive when it falls.

Series [1] can be described thus: Cytotoxicity against human MCF-10A cells assessed as cell growth inhibition incubated for 72 hrs by MTT assay. The class given is toxicity, cell-based. (Tetrazolium assays rely on reduction of a dye to a coloured formazan, in cell work by metabolically active cells.)
Series [2] has as its system NCI-H460. Description: Antiproliferative activity against human NCI-H460 cells assessed as cell growth inhibition incubated for 72 hrs by MTT assay. It is filed as functional.
Series [3] has as its system U-87 MG. Description: Antiproliferative activity against human U87 cells assessed as cell growth inhibition incubated for 72 hrs by MTT assay. It is filed as functional, U-87MG ATCC.
Series [4] has as its target Tubulin (Homo sapiens) (UniProt P68371+Q9H4B7+P0DPH7+P68366+Q13509+Q71U36+P04350+Q3ZCM7+P07437+P68363+Q9BQE3+Q6PEY2+Q13885+Q9BVA1+Q9BUF5). Description: Induction of tubulin (unknown origin) polymerization assessed as microtubule formation by measuring increase in fluorescence at 10 uM by fluorometric analysis. It is filed as protein-complex assay.
For series [5], the system named is MIA PaCa-2. The series is described as follows: Antiproliferative activity against human MIA PaCa-2 cells assessed as cell growth inhibition incubated for 72 hrs by MTT assay. The class given is functional.
Series [6] relates to A2780. The series is described as follows: Antiproliferative activity against human A2780 cells assessed as cell growth inhibition incubated for 72 hrs by MTT assay. The class given is functional.
In series [7] the test system is DU-145. Description: Antiproliferative activity against human DU-145 cells assessed as cell growth inhibition incubated for 72 hrs by MTT assay. It is filed as functional.
In series [8] the test system is BE(2)-C. The series is described as follows: Antiproliferative activity against human BE2C cells assessed as cell growth inhibition incubated for 72 hrs by MTT assay. The class given is functional.
A short description of series [9]: Antiproliferative activity against human SJG2 cells assessed as cell growth inhibition incubated for 72 hrs by MTT assay. The class given is functional. The following applies: SJ-G2.
For series [10], the system named is HT-29. Description: Antiproliferative activity against human HT-29 cells assessed as cell growth inhibition incubated for 72 hrs by MTT assay. It is filed as functional.
For series [11], the system named is A-431. Description: Antiproliferative activity against human A-431 cells assessed as cell growth inhibition incubated for 72 hrs by MTT assay. The class given is functional.
In series [12] the test system is MCF7. The series is described as follows: Antiproliferative activity against human MCF7 cells assessed as cell growth inhibition incubated for 72 hrs by MTT assay. It is filed as functional.
In series [13] the test system is A2780. The series is described as follows: Antiproliferative activity against human A2780 cells assessed as cell growth inhibition at 25 uM incubated for 72 hrs by MTT assay relative to control. It is filed as functional.
For series [14], the system named is DU-145. The series is described as follows: Antiproliferative activity against human DU-145 cells assessed as cell growth inhibition at 25 uM incubated for 72 hrs by MTT assay relative to control. It is filed as functional.
Series [15] has as its system U-87 MG. The series is described as follows: Antiproliferative activity against human U87 cells assessed as cell growth inhibition at 25 uM incubated for 72 hrs by MTT assay relative to control. It is filed as functional, U-87MG ATCC.
For series [16], the system named is MCF7. The series is described as follows: Antiproliferative activity against human MCF7 cells assessed as cell growth inhibition at 25 uM incubated for 72 hrs by MTT assay relative to control. The class given is functional.
Series [17] has as its system BE(2)-C. Description: Antiproliferative activity against human BE2C cells assessed as cell growth inhibition at 25 uM incubated for 72 hrs by MTT assay relative to control. The class given is functional.
Series [18] has as its system A-431. Description: Antiproliferative activity against human A-431 cells assessed as cell growth inhibition at 25 uM incubated for 72 hrs by MTT assay relative to control. It is filed as functional.
Series [19] in a line: Antiproliferative activity against human SJG2 cells assessed as cell growth inhibition at 25 uM incubated for 72 hrs by MTT assay relative to control. It is filed as functional. The conditions noted are these: SJ-G2.
Series [20] has as its system HT-29. Description: Antiproliferative activity against human HT-29 cells assessed as cell growth inhibition at 25 uM incubated for 72 hrs by MTT assay relative to control. The class given is functional.
The subject of series [21] is NCI-H460. The series is described as follows: Antiproliferative activity against human NCI-H460 cells assessed as cell growth inhibition at 25 uM incubated for 72 hrs by MTT assay relative to control. The class given is functional.
The nature of series [22]: Cytotoxicity against human MCF-10A cells assessed as cell growth inhibition at 25 uM incubated for 72 hrs by MTT assay relative to control. It is filed as toxicity, cell-based.
Series [23] relates to MIA PaCa-2. Description: Antiproliferative activity against human MIA PaCa-2 cells assessed as cell growth inhibition at 25 uM incubated for 72 hrs by MTT assay relative to control. It is filed as functional.

Take `Cc1ccc2[nH]cc(-c3nc4ccccc4c(=O)[nH]3)c2c1`: the GI50 at 72 h in series [1] worked out at 1200 nM. Moreover, the GI50 in series [2] is 3.7 µM; in series [3] it was 16 µM; in series [5], 1000 nM; in [6], 1300 nM; in series [7] it was > 50 µM; in series [8], 630 nM. For the same compound, the GI50 in series [9] is > 50 µM; in series [10], 390 nM; in [11], 570 nM; in series [12], 280 nM. Besides, the outcome in series [4] (filed as activator) was Active.

With `O=C1NC(/C=C/c2ccccc2[N+](=O)[O-])Nc2ccccc21` (stereo not given), the inhibition at 25 µM in series [13] came out at 69%; in series [14] it was 66%; in series [15] it was 24%; in [16] it was 55%; in series [17], 53%; in series [18], 40%. Also, the inhibition at 25 µM in series [19] worked out at 81%; in [20], 37%; in series [21], 35%; in [23], 32%. Moreover, in series [4], the result was inactive. For the same compound, the inhibition at 72 h, 25 µM in series [22] stood at 13%.

In the case of `O=c1[nH]c(/C=C/c2ccccc2)nc2ccccc12`, in series [1], the GI50 at 72 h came to 2300 nM. Further, the inhibition at 25 µM in series [13], in series [14], in series [15], in [16], in series [17] and in [18] was > 100% throughout. Also, the inhibition at 25 µM in series [19] was > 100%; in series [20], > 100%; in [21], > 100%; in [23] it was 96%. For the same compound, the GI50 came out at 2.5 µM in series [2]; 2.7 µM in series [3]; 2300 nM in [5]; 450 nM in series [6]; 2.4 µM in series [7]; 500 nM in [8]. For the same compound, the GI50 in series [9] was 2.2 µM; in series [10], 400 nM; in series [11], 640 nM; in [12] it was 1300 nM. Moreover, in series [4], the result was inactive. For the same compound, the inhibition at 72 h, 25 µM in series [22] was > 100%.

Consider `COc1cccc(/C=C/c2nc3ccccc3c(=O)[nH]2)c1`, for which the GI50 at 72 h in series [1] came to 2200 nM. The inhibition at 25 µM in [13] was > 100%; in series [14], 78%; in series [15] it was 75%; in [16], > 100%; in series [17], 99%; in series [18], > 100%. Also, the inhibition at 25 µM in [19] is 100%; in series [20], > 100%; in series [21] it was > 100%; in series [23], 93%. Also, the GI50 in series [2] stood at 2.2 µM; in series [3], 10 µM; in [5], 2900 nM; in series [6] it was 2600 nM; in series [7], 3.9 µM; in series [8] it was 2100 nM. Further, the GI50 worked out at 2.8 µM in [9], 900 nM in [10], 2600 nM in series [11] and 470 nM in series [12]. For the same compound, the result in [4] was inactive. Also, the inhibition at 72 h, 25 µM in series [22] is 95%.

As to `O=C1NC(CCc2ccccc2)Nc2ccccc21` (stereo not given), in series [1], the GI50 at 72 h was 14000 nM. In addition, the inhibition at 25 µM in [13] is 29%; in series [14], 27%; in series [15] it was < 10%; in series [16], 38%; in series [17], 19%; in [18], 14%. Also, the inhibition at 25 µM is 16% in series [19], 29% in series [20], < 10% in series [21] and 27% in series [23]. Also, the GI50 is 12 µM in series [2]; 19 µM in [3]; 13000 nM in [5]; 3900 nM in series [6]; 17 µM in series [7]; 3600 nM in series [8]. Also, the GI50 in series [9] came to 16 µM; in series [10] it was 3500 nM; in series [11], 3600 nM; in [12] it was 14000 nM. Besides, the outcome in series [4] (filed as activator) was Active. For the same compound, the inhibition at 72 h, 25 µM in [22] is 23%.

As for `O=c1[nH]c(/C=C/c2ccc(O)cc2)nc2ccccc12`, in series [1], the GI50 at 72 h was 380 nM. The inhibition at 25 µM in series [13], in [14], in series [15], in series [16], in series [17] and in series [18] was > 100% in each case. Besides, the inhibition at 25 µM in [19], in [20], in series [21] and in series [23] was > 100% each time. The GI50 was 0.37 µM in [2]; 0.48 µM in [3]; 340 nM in [5]; 300 nM in series [6]; 0.35 µM in series [7]; 250 nM in series [8]. Moreover, the GI50 in series [9] worked out at 0.29 µM; in series [10], 350 nM; in series [11] it was 280 nM; in series [12], 220 nM. Moreover, the inhibition at 72 h, 25 µM in series [22] was > 100%.

Turning to `CC(=O)O[C@H]1C(=O)[C@@]2(C)[C@H]([C@H](OC(=O)c3ccccc3)[C@]3(O)C[C@H](OC(=O)[C@H](O)[C@@H](NC(=O)c4ccccc4)c4ccccc4)C(C)=C1C3(C)C)[C@]1(OC(C)=O)CO[C@@H]1C[C@@H]2O`, the outcome in series [4] (filed as activator) was Active.

Turning to `O=C1NC(c2ccc([N+](=O)[O-])cc2)Nc2ccccc21` (stereo not given), the GI50 at 72 h in series [1] worked out at 11000 nM. For the same compound, the inhibition at 25 µM in [13] is 65%; in series [14] it was 50%; in [15], 22%; in [16], > 100%; in [17] it was 53%; in [18] it was 57%. Moreover, the inhibition at 25 µM in [19] was 56%; in series [20], 70%; in [21], 61%; in series [23] it was 52%. Further, the GI50 in [2] was 14 µM; in series [3], > 50 µM; in series [5], 7500 nM; in series [6] it was 11000 nM; in series [7], 26 µM; in [8], 10000 nM. For the same compound, the GI50 in [9] stood at 10 µM; in [10], 8700 nM; in series [11] it was 17000 nM; in series [12] it was 3800 nM. For the same compound, the inhibition at 72 h, 25 µM in series [22] amounted to 58%.

As for `O=c1[nH]c(-c2ccc(Br)cc2)nc2ccccc12`, the GI50 at 72 h in [1] was determined as 5400 nM. Besides, the inhibition at 25 µM in series [13] is 83%; in [14] it was 98%; in series [15], 91%; in [16] it was 99%; in series [17], 77%; in series [18], 88%. In addition, the inhibition at 25 µM in series [19] amounted to 66%; in [20] it was 91%; in series [21], 68%; in series [23], 71%. Besides, the GI50 in [2] is 5.7 µM; in series [3], 10 µM; in series [5] it was 8800 nM; in series [6] it was 3900 nM; in series [7] it was 4.5 µM; in [8] it was 6400 nM. In addition, the GI50 turned out to be 4.3 µM in series [9], 5200 nM in [10], 5800 nM in series [11] and 3800 nM in series [12]. Besides, in series [22], the inhibition at 72 h, 25 µM amounted to 91%.
